Experimental data reported in patent US20230002387A1, “2-AMINO-S6-SUBSTITUTED THIOPURINE COMPOUNDS AS INHIBITORS OF THE ENPP1 PROTEIN” (ATEN PORUS LIFESCIENCES PVT. LTD., priority 2019, published 2023).

Key:
[1] = tested on: LLC1 syngeneic tumor; experiment: In vivo efficacy in LLC1 syngeneic tumor model (murine Lewis lung carcinoma); design: species or system C57BL/6 mice; details: for % TGI (vs Control): Day 15; for Tumor volume (mm^3), Mean, Day 15: SE in next cell; for Reduction of tumor volume compared among the dosing groups of the compound: IV dosing in combination with anti-PD-1 antibody (FIG. 4, 7, 10); for Tumor volume (mm^3), Mean ± SE, Day 1: baseline at start of treatment; for Effect on tumor volume in the murine Lewis lung carcinoma model: PO and IV dosing, alone or in combination with anti-PD-1 antibody (FIG. 4, 7, 10)
Protocol: The anti-tumor efficacy of Compound 155, 173 and 174 was evaluated in combination with an anti-PD-1 antibody (check point inhibitor) in LLC1, a syngeneic tumor model. Compounds were administered orally at a dose of 100 mg/kg, once daily. IV doses of the compound were administered at 10 mg/kg dose, twice weekly or Q3D (Compound 155 at 2 mg/Kg IV). Anti-PD-1 antibody was administered at a dose of 200 μg/animal via IP route on days 1, 5 and 9 (Table 5).
C57BL/6 mice (female, 7-8 weeks of age) were implanted subcutaneously with 0.2×10^6 LLC1 cells (ATCC® CRL-1642^Tm) to evaluate tumor growth in a murine Lewis lung carcinoma model. Tumor-bearing animals were randomized into different treatment groups of 8 animals based on tumor size criteria of about 50-60 mm^3 and dosed according to the schedule in Table 5.
Dosing protocol: The frequency for oral administration was once daily and IV administration was twice weekly for two weeks; anti-PD-1 antibody was administered via IP route on Days 1, 5 and 9.
Tumor measurement: Tumor growth was measured thrice weekly using a digital Vernier caliper. Tumor volume was calculated as: Tumor Volume (TV)=[Length (L)×Width (W)2]/2 (where length is the largest diameter and width is the smallest diameter of the tumor)
Efficacy Evaluation: Tumor growth inhibition (TGI) was calculated as: […]
Data Analysis: Statistical analysis of the data was performed by One-way ANOVA followed by Dunnett's test using GraphPad Prism (version 5.03).

[2] = molecular target: T1, ENPP1 (Homo sapiens, UniProt P22413); experiment: Capillary electrophoresis-based NPP assay with ATP as a substrate (ENPP1 inhibition, Ki); assay type: biochemical; details: Ki from IC50 by Cheng-Prusoff, 400 μM ATP
T1 sequence (P22413 1-925): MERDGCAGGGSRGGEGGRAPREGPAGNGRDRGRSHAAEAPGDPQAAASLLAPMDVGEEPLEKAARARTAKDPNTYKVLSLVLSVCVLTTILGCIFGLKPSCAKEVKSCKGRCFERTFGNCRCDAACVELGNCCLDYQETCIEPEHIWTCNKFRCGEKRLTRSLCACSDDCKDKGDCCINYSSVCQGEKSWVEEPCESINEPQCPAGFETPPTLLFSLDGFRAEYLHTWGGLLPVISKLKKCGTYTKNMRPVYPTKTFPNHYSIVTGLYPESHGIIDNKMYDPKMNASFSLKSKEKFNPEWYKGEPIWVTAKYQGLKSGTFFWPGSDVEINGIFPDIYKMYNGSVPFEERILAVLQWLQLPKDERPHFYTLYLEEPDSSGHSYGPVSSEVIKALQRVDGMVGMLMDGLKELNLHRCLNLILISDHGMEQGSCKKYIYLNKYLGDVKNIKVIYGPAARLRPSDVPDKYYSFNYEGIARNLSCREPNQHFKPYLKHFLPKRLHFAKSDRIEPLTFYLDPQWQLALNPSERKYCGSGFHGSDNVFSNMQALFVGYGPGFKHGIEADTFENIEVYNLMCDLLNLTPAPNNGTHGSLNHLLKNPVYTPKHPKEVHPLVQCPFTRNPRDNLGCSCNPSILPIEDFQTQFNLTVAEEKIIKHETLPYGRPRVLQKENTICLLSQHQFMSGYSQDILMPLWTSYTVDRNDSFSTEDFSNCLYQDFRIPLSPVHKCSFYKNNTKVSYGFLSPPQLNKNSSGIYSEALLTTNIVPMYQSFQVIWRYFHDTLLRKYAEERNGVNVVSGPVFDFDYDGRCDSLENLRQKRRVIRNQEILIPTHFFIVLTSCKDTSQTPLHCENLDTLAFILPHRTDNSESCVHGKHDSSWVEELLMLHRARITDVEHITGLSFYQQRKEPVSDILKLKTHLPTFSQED
Protocol: Here, a Capillary Electrophoresis based method was used to determine the IC50 values for ENPP1 Inhibitors for ENNP1 protein.
The inhibitors synthesized were assessed for ENPP1 inhibitory potency against the natural substrate ATP. The enzyme inhibition assays were performed in 10 mM 2-(N-cyclohexylamino)-ethanesulfonic acid (CHES) buffer (pH 10.0) including 1 mM MgCl2, 2 mM CaCl2), and 400 μM of ATP, with different inhibitor concentrations. The reaction mixture was incubated with 20 ng human NPP1 at 37° C. for 30 min in a final volume of 100 μL, and the reactions were stopped by heating at 90° C. for 3 min. Finally, the reaction mixtures were directly measured by capillary electrophoresis (CE). The CE instrumentation and operating conditions were as follows: P/ACE MDQ capillary electrophoresis system (Beckman Instruments, Fullerton, Calif., USA) with a DAD detection system, polyacrylamide-coated capillaries of 40 cm effective length×[…] (id) obtained from CS Chromatographie GmbH (Langerwehe, Germany), 50 mM phosphate buffer (pH 6.5) as running buffer, electrokinetic injection (−6 kV, 60 s), separation voltage of −15 kV. The amounts of AMP produced were measured at 260 nm. Data collection and peak area analysis were performed by 32 Karat software obtained from Beckman Coulter (Fullerton, Calif., USA).
The IC50 values of test compounds were calculated by plotting data in the program Prism 5.0, and the Ki values were calculated from the IC50 values with the Cheng-Prusoff equation (Tables 2-4).

[3] = IV 10 mg/kg twice weekly + anti-PD-1 200 μg/animal IP Q4D x 3
[4] = IV 10 mg/kg twice weekly, alone
[5] = PO 100 mg/kg QD x 14 + anti-PD-1 200 μg/animal IP Q4D x 3
[6] = IV 2 mg/kg twice weekly + anti-PD-1 200 μg/animal IP Q4D x 3

SMILES: CCC(Sc1nc(N)nc2nc[nH]c12)C(=O)Nc1ccc(O)c(OC)c1 (centres unmarked) [Compound 174]
- % TGI (vs Control) [1, 3]: 57%
- Tumor volume (mm^3), Mean, Day 15 [1, 3]: 778 mm^3
- % TGI (vs Control) [1, 4]: 48%
- Tumor volume (mm^3), Mean, Day 15 [1, 4]: 930 mm^3
- Reduction of tumor volume compared among the dosing groups of the compound [1]: greatest reduction
- % TGI (vs Control) [1, 5]: 60%
- Tumor volume (mm^3), Mean, Day 15 [1, 5]: 724 mm^3
- % TGI (vs Control) ([1]; PO 100 mg/kg QD x 14, alone): 52%
- Tumor volume (mm^3), Mean ± SE, Day 1 ([1]; IV 10 mg/kg + anti-PD-1 group): 50 ± 1.2 mm^3
- Tumor volume (mm^3), Mean ± SE, Day 1 ([1]; IV 10 mg/kg alone group): 50 ± 1.1 mm^3
- Tumor volume (mm^3), Mean ± SE, Day 1 ([1]; PO 100 mg/kg + anti-PD-1 group): 50 ± 1.2 mm^3
- Tumor volume (mm^3), Mean ± SE, Day 1 ([1]; PO 100 mg/kg alone group): 50 ± 1.3 mm^3

SMILES: Nc1nc(SCC(=O)Nc2ccc(O)c(C(=O)O)c2)c2[nH]cnc2n1 [Compound 155]
- Ki ([2]; bin of Table 2): ≤ 100 nM
- % TGI (vs Control) [1, 6]: 57%
- Tumor volume (mm^3), Mean, Day 15 [1, 6]: 787 mm^3
- % TGI (vs Control) ([1]; IV 2 mg/kg twice weekly, alone): 47%
- Tumor volume (mm^3), Mean, Day 15 ([1]; IV 2 mg/kg twice weekly, alone): 956 mm^3
- Reduction of tumor volume compared among the dosing groups of the compound [1]: greatest reduction
- % TGI (vs Control) [1, 5]: 44%
- Tumor volume (mm^3), Mean, Day 15 [1, 5]: 1008 mm^3
- % TGI (vs Control) ([1]; PO 100 mg/kg QD x 14, alone): 33%
- Tumor volume (mm^3), Mean, Day 15 ([1]; PO 100 mg/kg QD x 14, alone): 1191 mm^3
- Effect on tumor volume in the murine Lewis lung carcinoma model [1]: reduced tumor volume
- Tumor volume (mm^3), Mean ± SE, Day 1 ([1]; IV 2 mg/kg + anti-PD-1 group): 50 ± 1.4 mm^3
- Tumor volume (mm^3), Mean ± SE, Day 1 ([1]; IV 2 mg/kg alone group): 51 ± 2.0 mm^3
- Tumor volume (mm^3), Mean ± SE, Day 1 ([1]; PO 100 mg/kg + anti-PD-1 group): 50 ± 1.4 mm^3
- Tumor volume (mm^3), Mean ± SE, Day 1 ([1]; PO 100 mg/kg alone group): 50 ± 1.4 mm^3

SMILES: CC[C@H](Sc1nc(N)nc2nc[nH]c12)C(=O)Nc1ccc(OC)c(OC)n1 [Compound 472]
- Ki ([2]; bin of Table 2): ≤ 100 nM

SMILES: COc1ccc(NC(=O)CSc2nc3ccncc3o2)cc1OC [Compound 22]
- Ki ([2]; bin of Table 4): ≥ 1000 nM

SMILES: COc1cc(NC(=O)C(C)Sc2nc(N)nc3nc[nH]c23)ccc1O (centres unmarked) [Compound 173]
- Ki ([2]; bin of Table 2): ≤ 100 nM
- % TGI (vs Control) [1, 3]: 53%
- Tumor volume (mm^3), Mean, Day 15 [1, 3]: 856 mm^3
- % TGI (vs Control) [1, 4]: 48%
- Tumor volume (mm^3), Mean, Day 15 [1, 4]: 926 mm^3
- Reduction of tumor volume compared among the dosing groups of the compound [1]: greatest reduction
- % TGI (vs Control) [1, 5]: 47%
- Tumor volume (mm^3), Mean, Day 15 [1, 5]: 945 mm^3
- % TGI (vs Control) ([1]; PO 100 mg/kg QD x 14, alone): 37%
- Tumor volume (mm^3), Mean, Day 15 ([1]; PO 100 mg/kg QD x 14, alone): 1126 mm^3
- Effect on tumor volume in the murine Lewis lung carcinoma model [1]: reduced tumor volume
- Tumor volume (mm^3), Mean ± SE, Day 1 ([1]; IV 10 mg/kg + anti-PD-1 group): 50 ± 1.4 mm^3
- Tumor volume (mm^3), Mean ± SE, Day 1 ([1]; IV 10 mg/kg alone group): 50 ± 1.3 mm^3
- Tumor volume (mm^3), Mean ± SE, Day 1 ([1]; PO 100 mg/kg + anti-PD-1 group): 50 ± 1.4 mm^3
- Tumor volume (mm^3), Mean ± SE, Day 1 ([1]; PO 100 mg/kg alone group): 50 ± 1.4 mm^3

SMILES: COc1cc(NC(=O)[C@H](CC(C)C)Sc2nc(N)nc3nc[nH]c23)ccc1O [Compound 272]
- Ki ([2]; bin of Table 2): ≤ 100 nM

SMILES: Nc1nc(S[C@@H](CCc2ccccc2)C(=O)Nc2ccc(O)c(C(=O)O)c2)c2[nH]cnc2n1 [Compound 485]
- Ki ([2]; bin of Table 2): ≤ 100 nM

SMILES: COc1cc(NC(=O)[C@H](Sc2nc(N)nc3nc[nH]c23)c2ccccc2)ccc1O [Compound 329]
- Ki ([2]; bin of Table 2): ≤ 100 nM

SMILES: COc1ccc(NC(=O)Cn2cnc3ncnc(N)c32)cc1OC [Compound 18]
- Ki ([2]; bin of Table 4): ≥ 1000 nM

SMILES: CC[C@H](Sc1nc(N)nc2nc[nH]c12)C(=O)Nc1ccc(O)c(C(=O)O)c1 [Compound 267]
- Ki ([2]; bin of Table 2): ≤ 100 nM

SMILES: Nc1nc(SCC(=O)Nc2ccc3ncccc3c2)c2[nH]cnc2n1 [Compound 184]
- Ki ([2]; bin of Table 2): ≤ 100 nM

SMILES: COc1ccc(NC(=O)[C@H](C)Sc2nc(N)nc3nc[nH]c23)nc1OC [Compound 491]
- Ki ([2]; bin of Table 2): ≤ 100 nM

SMILES: CC[C@H](Sc1nc(N)nc2nc[nH]c12)C(=O)Nc1nccc(OC)n1 [Compound 435]
- Ki ([2]; bin of Table 2): ≤ 100 nM

SMILES: CC(=O)c1cc(NC(=O)CSc2nc(N)nc3nc[nH]c23)ccc1O [Compound 199]
- Ki ([2]; bin of Table 2): ≤ 100 nM
